Data: ChEMBL document CHEMBL6127073, “Utilizing artificial intelligence for precision exploration of N protein targeting phenanthridine sars-cov-2 inhibitors: A novel approach” (Eur J Med Chem, 2024)
pEC50, pKd: −log10 of the molar value. Active and inactive are the calls of the source. No cut-off for these calls is given here.

Columns and labels:
Nucleoprotein [1] = biological target: T1, Nucleoprotein (Severe acute respiratory syndrome coronavirus 2, UniProt P0DTC9); assay: Binding affinity to SARS-CoV-2 N-pro assessed as dissociation constant in presence of ssRNA by MST analysis
[2] = biological target: Nucleoprotein (Severe acute respiratory syndrome coronavirus 2) (UniProt P0DTC9); assay: Inhibition of ssRNA binding to SARS-CoV-2 N-pro at 100 uM by MST analysis relative to control
Nucleoprotein [3] = biological target: T1, Nucleoprotein; assay: Binding affinity to SARS-CoV-2 N-pro assessed as dissociation constant by SPR analysis
SARS-CoV-2 [4] = assay: Antiviral activity against SARS-CoV-2 107 infected in African green monkey Vero E6 cells assessed as inhibition of viral replication pre-infected with virus followed by compound addition and measured after 72 hrs by inverted microscopic analysis; type: functional, organism-based; details: Severe acute respiratory syndrome coronavirus 2, 107, Vero C1008, 72 h
SARS-CoV-2 [5] = assay: Antiviral activity against SARS-CoV-2 107 infected in African green monkey Vero E6 cells assessed as increase in cell survival rate at 50 uM pre-infected with virus followed by compound addition for 2 hrs and measured after 72 hrs by MTT assay; type: functional, organism-based; details: Severe acute respiratory syndrome coronavirus 2, time 74.0 hrs
Nucleoprotein [6] = biological target: T1, Nucleoprotein; assay: Binding affinity to SARS-CoV-2 N-pro assessed as dissociation constant by MST analysis
SARS-CoV-2 [7] = assay: Antiviral activity against SARS-CoV-2 107 infected in African green monkey Vero E6 cells assessed as inhibition of virus induced cytopathic effect by neutral red staining based analysis; type: functional, organism-based; details: Severe acute respiratory syndrome coronavirus 2, time 74.0 hrs
[8] = Cytotoxicity against African green monkey Vero E6 cells after 72 hrs by CCK8 assay; type: toxicity, cell-based, Vero C1008; details: chlorocebus sabaeus
[9] = Selectivity index, ratio of CC50 for cytotoxicity against African green monkey Vero E6 cells to EC50 for antiviral activity against SARS-CoV-2 107 infected in African green monkey Vero E6 cells; type: toxicity, cell-based; details: read-out: Ratio CC50/EC50
Nucleoprotein [10] = biological target: T1, Nucleoprotein; assay: Binding affinity to wild type SARS-CoV-2 N-pro assessed as dissociation constant by MST analysis

Compound	pKd (Nucleoprotein [3])	also measured
CCN1Cc2cc(OC)c(OC)cc2-c2cccc(Nc3ncnc4c3nnn4Cc3ccccc3)c21	6.46	pKd (Nucleoprotein [1]): 4.08; inhibition [2]: 100%; pEC50 (SARS-CoV-2 [4]): 4.95; Activity (SARS-CoV-2 [5]): Active; pKd (Nucleoprotein [6]): 6.14; Activity (SARS-CoV-2 [7]): Active; CC50 at 72 h [8]: > 200 µM; selectivity ratio [9]: > 17.7; pKd (Nucleoprotein [10]): 5.27
CCn1c(=O)c2cc(OC)c(OC)cc2c2cccc(/C=N/C3C=CNN3)c21 (stereo unspecified)	5.60	
CCN1Cc2cc(OC)c(OC)cc2-c2cccc(NCc3csc4ccc(Cl)cc34)c21	4.01	
CCN1Cc2cc(OC)c(OC)cc2-c2cccc(NCc3ccc(C4(C(F)(F)F)N=N4)cc3)c21	4.43	
CCN1Cc2cc(OC)c(OC)cc2-c2cccc(NC(=O)c3cc([N+](=O)[O-])cc([N+](=O)[O-])c3)c21	4.42	
CCn1c(=O)c2cc(OC)c(OC)cc2c2cccc(NS(=O)(=O)c3ccc(Cl)cc3)c21	5.28	
CCN1Cc2cc(OC)c(OC)cc2-c2cccc(NC(=O)Cc3ccccc3)c21	5.27	
CCN1Cc2cc(OC)c(OC)cc2-c2cccc(NC(=O)Nc3cccc4c3N(CC)Cc3cc(OC)c(OC)cc3-4)c21	5.34	
CCn1c(=O)c2cc(OC)c(OC)cc2c2cccc(/C=N/c3nc[nH]n3)c21	4.20	
CCn1c(=O)c2cc(OC)c(OC)cc2c2cccc(C3C4=C(CCCC4=O)N(c4ccccc4)C4=C3C(=O)CCC4)c21	3.77	
CCn1c(=O)c2cc(OC)c(OC)cc2c2cccc(/N=C/c3c4ccccc4cc4ccccc34)c21	5.01	
CCN1Cc2cc(OC)c(OC)cc2-c2cccc(Nc3ccc4c(c3)oc3ccccc34)c21	4.36	
